Results on 28 compounds are retold here after ChEMBL document CHEMBL4483862, “Open-source discovery of chemical leads for next-generation chemoprotective antimalarials” (2018).

What is called IC50 is the concentration needed to halve the response being measured. One may read the IC90 as the point of the concentration-response curve where the effect stands at 90%.

A value given as a limit tells only on which side of the number the result lay.

The test system of the experiment is Plasmodium berghei. In words: Luciferase/luciferin-expressing antifolate-resistant parasites were used to infect a culture of HepG2 cells that were pre-incubated with compounds. Infected hepatocytes emit light due to the luciferase reaction. Assay results are presented as the percent inhibition of light emission compared to control. […]. Type of experiment: functional. To be noted: sporozoite; for IC90: read-out: LUCIFERASE INFECTION ASSAY - IC90.

For `C=CCn1c(C)cc(C(=O)CSc2nc3ccccc3o2)c1C`, the 90% effect concentration (IC90) turned out to be 0.129 µM. Further, where the note is “HEPG2TOX_HILL_SLOPE 2.02, HEPG2TOX_R_SQUARED 0.572, PBLUC_HILL_SLOPE 43.7, PBLUC_R_SQUARED 0.493, read-out: LUCIFERASE INFECTION ASSAY - IC50”, the IC50 stood at 0.123 µM.

In the case of `COc1ccc(OC)c(NC(=O)c2cc(-c3cc(Cl)ccc3O)[nH]n2)c1`, the 90% effect concentration (IC90) is more than 8.83 µM. Further, the IC50 (HEPG2TOX_HILL_SLOPE 2.05, HEPG2TOX_R_SQUARED 0.718, PBLUC_HILL_SLOPE 2.04, PBLUC_R_SQUARED 0.622, read-out: LUCIFERASE INFECTION ASSAY - IC50) came out at 4.02 µM.

As to `CCc1ccc(CN(C)C(=O)c2cccc(S(=O)(=O)Nc3ccccc3OC)c2)cc1`, the IC90 is more than 10 µM. Besides, where the note is “HEPG2TOX_HILL_SLOPE 2.04, HEPG2TOX_R_SQUARED 0.142, read-out: LUCIFERASE INFECTION ASSAY - IC50”, the IC50 is more than 10 µM.

Take `Nc1nccc(/C=C/c2c(F)cccc2Cl)n1`: the IC90 was more than 13.2 µM. Further, for the setting “HEPG2TOX_HILL_SLOPE 2, HEPG2TOX_R_SQUARED 0.972, PBLUC_HILL_SLOPE 2.11, PBLUC_R_SQUARED 0.172, read-out: LUCIFERASE INFECTION ASSAY - IC50”, the IC50 was determined as 8.94 µM.

With `COc1ccc2[nH]c3c(NCCC4=CCCCC4)ncnc3c2c1`, the 90% effect concentration (IC90) was determined as 5.19 µM. Besides, for the setting “HEPG2TOX_HILL_SLOPE 2.01, HEPG2TOX_R_SQUARED 0.344, PBLUC_HILL_SLOPE 1.69, PBLUC_R_SQUARED 0.738, read-out: LUCIFERASE INFECTION ASSAY - IC50”, the half-inhibitory concentration (IC50) came out at 1.42 µM.

Turning to `Oc1ccc2ccccc2c1/C=N/Nc1nnc(-c2ncc[nH]2)c2ccccc12`, the IC90 amounted to 4.64 µM. Besides, where the note is “HEPG2TOX_HILL_SLOPE 2.06, HEPG2TOX_R_SQUARED 0.877, PBLUC_HILL_SLOPE 10.4, PBLUC_R_SQUARED 0.915, read-out: LUCIFERASE INFECTION ASSAY - IC50”, the IC50 was 3.76 µM.

As to `CC(C)N1/C(=C\c2ccccc2O)C(=O)c2ccccc2S1(=O)=O`, the IC90 was more than 9.61 µM. The IC50 (HEPG2TOX_HILL_SLOPE 2.04, HEPG2TOX_R_SQUARED 0.975, PBLUC_HILL_SLOPE 1.99, PBLUC_R_SQUARED 0.616, read-out: LUCIFERASE INFECTION ASSAY - IC50) is 3.26 µM.

Take `Cc1ccc(C)c(C(=O)C(C)Sc2nnc(-c3cccc(Br)c3)o2)c1` (stereo unspecified): the 90% effect concentration (IC90) stood at 9.4 µM. Moreover, the IC50 (HEPG2TOX_HILL_SLOPE 2.02, HEPG2TOX_R_SQUARED 0.871, PBLUC_HILL_SLOPE 4.17, 0.287, PBLUC_R_SQUARED 0.527, 0.262, read-out: LUCIFERASE INFECTION ASSAY - IC50) was found to be 4.21 µM.

Turning to `Cc1cccc(C(=O)Nc2nc3ccccn3c2C(=O)NC2CCCCC2)c1`, the IC90 worked out at 2.91 µM. The 50% inhibitory concentration (IC50) (HEPG2TOX_HILL_SLOPE 2.01, HEPG2TOX_R_SQUARED 0.621, PBLUC_HILL_SLOPE 5.25, PBLUC_R_SQUARED 0.58, read-out: LUCIFERASE INFECTION ASSAY - IC50) stood at 1.91 µM.

For the compound `CCN(CCNc1ncnc2sc(-c3ccccc3)cc12)c1cccc(C)c1`, the IC90 came out at 3.9 µM. Further, for the setting “HEPG2TOX_HILL_SLOPE 2.04, HEPG2TOX_R_SQUARED 0.0176, PBLUC_HILL_SLOPE 12.8, PBLUC_R_SQUARED 0.373, read-out: LUCIFERASE INFECTION ASSAY - IC50”, the half-maximal inhibitory concentration (IC50) came to 3.29 µM.

Regarding `O=C(c1cncn1-c1ccccc1)N1CC=C(c2ccccc2)CC1`, the IC90 was more than 10 µM. Besides, where the note is “HEPG2TOX_HILL_SLOPE 2.04, HEPG2TOX_R_SQUARED 0.78, PBLUC_HILL_SLOPE 1.11, PBLUC_R_SQUARED 0.463, read-out: LUCIFERASE INFECTION ASSAY - IC50”, the IC50 came out at 4.38 µM.

Regarding `Cc1nc2ccccc2nc1SCC(=O)NC1CCCC(C)C1C` (stereo unspecified), the IC90 worked out at 8.45 µM. Besides, the concentration for half-maximal inhibition (IC50) (HEPG2TOX_HILL_SLOPE 2.05, HEPG2TOX_R_SQUARED 0.851, PBLUC_HILL_SLOPE 3.81, PBLUC_R_SQUARED 0.351, read-out: LUCIFERASE INFECTION ASSAY - IC50) is 4.75 µM.

For the compound `COc1ccc(-c2nnc(NC(=O)c3ccc(C)c(S(=O)(=O)N4CCCCC4)c3)[nH]2)cc1`, the IC90 came out at 6.51 µM. The IC50 (HEPG2TOX_HILL_SLOPE 2.01, HEPG2TOX_R_SQUARED 0.893, PBLUC_HILL_SLOPE 2.99, PBLUC_R_SQUARED 0.681, read-out: LUCIFERASE INFECTION ASSAY - IC50) stood at 3.12 µM.

As to `O=[N+]([O-])c1ccc(NN=C(Cc2ccccc2)Cc2ccccc2)c(S(=O)(=O)Nc2ccccc2Cl)c1`, the IC90 is more than 10 µM. Besides, for the setting “HEPG2TOX_HILL_SLOPE 2.02, HEPG2TOX_R_SQUARED 0.983, PBLUC_HILL_SLOPE 2.86, PBLUC_R_SQUARED 0.742, read-out: LUCIFERASE INFECTION ASSAY - IC50”, the IC50 came to 6.11 µM.

Take `COc1cc(/C=C/C(=O)c2ccc(C3CCCCC3)cc2)cc(Br)c1OCC(=O)N(C)C`: the 90% effect concentration (IC90) turned out to be 3.59 µM. In addition, the IC50 (HEPG2TOX_HILL_SLOPE 2.02, HEPG2TOX_R_SQUARED 0.972, PBLUC_HILL_SLOPE 3.75, PBLUC_R_SQUARED 0.69, read-out: LUCIFERASE INFECTION ASSAY - IC50) worked out at 2 µM.

In the case of `c1ccc(-c2csc3ncnc(Sc4ccc5nnnn5n4)c23)cc1`, the IC90 was more than 10 µM. In addition, under “HEPG2TOX_HILL_SLOPE 2.04, HEPG2TOX_R_SQUARED 0.855, PBLUC_HILL_SLOPE 0.945, PBLUC_R_SQUARED 0.512, read-out: LUCIFERASE INFECTION ASSAY - IC50”, the concentration for half-maximal inhibition (IC50) came out at 7.55 µM.

In the case of `N#C/C(=N\Nc1cc(C(F)(F)F)ccc1OCC(F)(F)F)S(=O)(=O)c1ccccc1`, the IC90 was determined as 0.397 µM. In addition, the IC50 (HEPG2TOX_HILL_SLOPE 2.04, HEPG2TOX_R_SQUARED 0.948, PBLUC_HILL_SLOPE 1.99, PBLUC_R_SQUARED 0.732, read-out: LUCIFERASE INFECTION ASSAY - IC50) was found to be 0.131 µM.

On to `CC1=NC(C)=C(C#N)C(c2cc(Br)ccc2OC(F)F)C1C#N` (stereo unspecified), for which the 90% effect concentration (IC90) turned out to be 4.24 µM. Moreover, the IC50 (HEPG2TOX_HILL_SLOPE 2.06, HEPG2TOX_R_SQUARED 0.906, PBLUC_HILL_SLOPE 11.5, PBLUC_R_SQUARED 0.189, read-out: LUCIFERASE INFECTION ASSAY - IC50) was found to be 3.51 µM.

For the compound `O=S(=O)(c1ccccc1NCc1ccnc(N2CCCC2)c1)C(F)(F)F`, the IC90 was more than 10 µM. In addition, the half-maximal inhibitory concentration (IC50) (HEPG2TOX_HILL_SLOPE 1.99, HEPG2TOX_R_SQUARED 0.873, PBLUC_HILL_SLOPE 3.99, PBLUC_R_SQUARED 0.0495, read-out: LUCIFERASE INFECTION ASSAY - IC50) amounted to 6.48 µM.

Regarding `CCCCn1nc(C)c(/C=C/C(=O)N(CC)CC(=O)NCc2ccc(F)cc2)c1Cl`, the concentration for an effect of 90% (IC90) was more than 10 µM. The IC50 (HEPG2TOX_HILL_SLOPE 2.05, HEPG2TOX_R_SQUARED 0.946, PBLUC_HILL_SLOPE 2.58, PBLUC_R_SQUARED 0.346, read-out: LUCIFERASE INFECTION ASSAY - IC50) worked out at 6.71 µM.

Turning to `Cc1cn2c(CNCCc3ccc(N4CCCCC4)cc3)c(C)nc2s1`, the IC90 is 0.606 µM. Besides, for the setting “HEPG2TOX_HILL_SLOPE 1.99, HEPG2TOX_R_SQUARED 0.618, PBLUC_HILL_SLOPE 85.2, PBLUC_R_SQUARED 0.531, read-out: LUCIFERASE INFECTION ASSAY - IC50”, the IC50 worked out at 0.591 µM.

Consider `Cc1ccccc1-c1noc(CN(C2CCCc3ccccc32)S(C)(=O)=O)n1` (stereo unspecified), for which the IC90 was more than 8.3 µM. Under “HEPG2TOX_HILL_SLOPE 2, HEPG2TOX_R_SQUARED 0.927, PBLUC_HILL_SLOPE 1.37, PBLUC_R_SQUARED 0.678, read-out: LUCIFERASE INFECTION ASSAY - IC50”, the IC50 was 1.93 µM.

For `Cc1nc(NC(=O)CCc2c[nH]c3ccccc23)sc1-c1ccccn1`, the IC90 amounted to 3.51 µM. Also, the IC50 (HEPG2TOX_HILL_SLOPE 2, HEPG2TOX_R_SQUARED 0.799, PBLUC_HILL_SLOPE 14.5, PBLUC_R_SQUARED 0.715, read-out: LUCIFERASE INFECTION ASSAY - IC50) amounted to 3.02 µM.

Take `O=C(Nc1ccc(Oc2ccccc2)cc1)c1csc(C(O)c2cccc(Cl)c2)n1` (stereo unspecified): the IC90 worked out at 5.62 µM. Moreover, where the note is “HEPG2TOX_HILL_SLOPE 2.05, HEPG2TOX_R_SQUARED 0.879, PBLUC_HILL_SLOPE 3.47, PBLUC_R_SQUARED 0.401, read-out: LUCIFERASE INFECTION ASSAY - IC50”, the half-maximal inhibitory concentration (IC50) was determined as 2.99 µM.

`Fc1cccc(-c2nc3ccnc(NCCc4ccccn4)c3[nH]2)c1`: the IC90 came out at 4.02 µM. Under “HEPG2TOX_HILL_SLOPE 2.04, HEPG2TOX_R_SQUARED 0.803, PBLUC_HILL_SLOPE 12.8, PBLUC_R_SQUARED 0.152, read-out: LUCIFERASE INFECTION ASSAY - IC50”, the IC50 is 3.38 µM.

Take `N#C/C(=N\Nc1ccccc1Cl)S(=O)(=O)c1ccc(Cl)cc1`: the IC90 was 4.8 µM. For the same compound, the concentration for half-maximal inhibition (IC50) (HEPG2TOX_HILL_SLOPE 2.02, HEPG2TOX_R_SQUARED 0.971, PBLUC_HILL_SLOPE 7.31, PBLUC_R_SQUARED 0.396, read-out: LUCIFERASE INFECTION ASSAY - IC50) is 3.55 µM.

For `N#Cc1cc(-c2ccccc2)nnc1NCc1ccc(Cl)cc1`, the IC90 is more than 10.3 µM. The IC50 (HEPG2TOX_HILL_SLOPE 2, HEPG2TOX_R_SQUARED 0.904, PBLUC_HILL_SLOPE 2.36, PBLUC_R_SQUARED 0.485, read-out: LUCIFERASE INFECTION ASSAY - IC50) amounted to 6.28 µM.

For `Cc1cc(N(C)Cc2ccccc2Br)nc(N)n1`, the 90% effect concentration (IC90) was found to be 2.29 µM. Moreover, the IC50 (HEPG2TOX_HILL_SLOPE 1.99, HEPG2TOX_R_SQUARED 0.929, PBLUC_HILL_SLOPE 3.52, PBLUC_R_SQUARED 0.797, read-out: LUCIFERASE INFECTION ASSAY - IC50) was 1.23 µM.
